Source: ChEMBL document CHEMBL4312036, “Antiproliferative activity and mode of action analysis of novel amino and amido substituted phenantrene and naphtho[2,1-b]thiophene derivatives” (Eur J Med Chem, 2020)
Calls of active or inactive are those of the source. The rule behind the calls is not given here.

How the values were obtained:
SW-620 = assay: Antiproliferative activity against human SW620 cells incubated for 72 hrs by MTT assay; type: functional, cell-based; settings: SW-620, 72 h
HeLa [1] = assay: cells; settings: Homo sapiens, 72 h
Description: Antiproliferative activity against human HeLa cells incubated for 72 hrs by MTT assay

HepG2 [2] = assay: cells; settings: Homo sapiens, HepG2, 72 h
Description: Antiproliferative activity against human HepG2 cells incubated for 72 hrs by MTT assay

A549 = assay: Antiproliferative activity against human A549 cells incubated for 72 hrs by MTT assay; type: functional, cell-based; settings: A549, 72 h
CFPAC-1 = assay: Antiproliferative activity against human CFPAC-1 cells incubated for 72 hrs by MTT assay; type: functional, cell-based; settings: CFPAC-1, 72 h
HFF = assay: Cytotoxicity against HFF cells assessed as reduction in cell viability incubated for 72 hrs by MTT assay; type: cell-based; settings: Homo sapiens
HeLa [3] = assay: Downregulation of MEK1/2 protein level in human HeLa cells at 2 times IC50 incubated for 72 hrs by Western blot analysis; type: functional, cell-based
HeLa [4] = assay: Upregulation of HIF1 protein level in human HeLa cells at 2 times IC50 incubated for 48 hrs by Western blot analysis; type: functional, cell-based
HepG2 [5] = assay: Downregulation of MEK1/2 protein level in human HepG2 cells at 2 times IC50 incubated for 72 hrs by Western blot analysis; type: functional, cell-based
HeLa [6] = assay: Upregulation of HIF1 protein level in human HeLa cells at 2 times IC50 incubated for 72 hrs by Western blot analysis; type: functional, cell-based
HepG2 [7] = assay: Upregulation of HIF1 protein level in human HepG2 cells at 2 times IC50 incubated for 72 hrs by Western blot analysis; type: functional, cell-based
HeLa [8] = assay: Downregulation of MEK1/2 protein level in human HeLa cells at 2 times IC50 incubated for 48 hrs by Western blot analysis; type: functional, cell-based

SMILES | IC50 (SW-620) [µM] | IC50 (HeLa [1]) [µM] | IC50 (HepG2 [2]) [µM] | IC50 (A549) [µM] | IC50 (CFPAC-1) [µM] | IC50 (HFF) [µM] | Activity (HeLa [3]) | Activity (HeLa [4]) | Activity (HepG2 [5]) | Activity (HeLa [6]) | Activity (HepG2 [7]) | Activity (HeLa [8])
N#C/C(=C\c1ccc(F)cc1)c1ccccc1 | 38.5 | 3.44 | 7.73 | 45.8 | 46.9 | 52.7 | – | – | – | – | – | –
N#C/C(=C\c1ccc(C#N)cc1)c1cccs1 | 61.4 | 0.21 | 0.3 | 47.7 | 52.4 | > 100 | Active | Active | Active | Active | Active | –
N#C/C(=C\c1ccccc1)c1cccs1 | > 100 | 20 | 43.4 | 59 | 97.8 | 84.3 | – | – | – | – | – | –
N#Cc1cc2ccc(N3CCNCC3)cc2c2ccsc12 | 2.58 | 2.38 | 20.9 | 7.09 | 3.66 | 37.5 | – | – | – | – | – | –
N#C/C(=C\c1ccc(F)cc1)c1cccs1 | 36.4 | 3.59 | 5.22 | 40.8 | 34.2 | 86.9 | – | – | – | – | – | –
N#C/C(=C\c1ccccc1)c1ccccc1 | > 100 | 48.9 | 81.5 | 64.6 | 88.2 | 93.7 | – | – | – | – | – | –
CC(C)CNC(=O)c1cc2ccccc2c2ccccc12 | 61.3 | 28.4 | 93.4 | 64.2 | 68.6 | > 100 | – | – | – | – | – | –
CC(C)CNC(=O)c1cc2ccccc2c2ccsc12 | > 100 | 39.6 | 75.4 | 63.9 | 97.5 | 96.8 | – | – | – | – | – | –
CN(C)CCCNC(=O)c1ccc2cc(C(=O)NCCCN(C)C)c3sccc3c2c1 | 4.4 | 4.21 | 16.2 | 5.57 | 6.59 | 5.83 | – | – | – | – | – | –
N#Cc1cc2ccccc2c2ccccc12 | > 100 | 30.3 | 48.8 | 72.4 | 80 | > 100 | – | – | – | – | – | –
N#Cc1cc2ccc(N3CCNCC3)cc2c2ccccc12 | 4.62 | 3.33 | 19.4 | 5.49 | 6.19 | 23.8 | – | – | – | – | – | –
CC(C)CNC(=O)c1ccc2cc(C(=O)NCC(C)C)c3sccc3c2c1 | 0.9 | 10.8 | 86.1 | 27.7 | > 100 | 0.74 | – | – | – | – | – | –
N#C/C(=C\c1ccc(C#N)cc1)c1ccccc1 | 9.18 | 0.33 | 0.52 | 8.39 | 6.7 | 6.07 | – | Active | Active | Active | Active | Active
CN(C)CCCNC(=O)c1cc2ccccc2c2ccsc12 | 17.7 | 14.4 | 23.2 | 20.2 | 17.5 | 24 | – | – | – | – | – | –
N#Cc1cc2ccc(N3CCCCC3)cc2c2ccccc12 | > 100 | 59.4 | 81.8 | 58.9 | > 100 | > 100 | – | – | – | – | – | –

Further lines, with some results ahead:

IC50 (SW-620) [µM] | IC50 (HeLa [1]) [µM] | IC50 (HepG2 [2]) [µM] | IC50 (A549) [µM] | SMILES | IC50 (CFPAC-1) [µM] | IC50 (HFF) [µM] | Activity (HeLa [3]) | Activity (HeLa [4]) | Activity (HepG2 [5]) | Activity (HeLa [6]) | Activity (HepG2 [7]) | Activity (HeLa [8])
42.4 | 11.6 | 32.1 | 49.9 | N#Cc1cc2ccc(F)cc2c2ccsc12 | 51 | 16.4 | – | – | – | – | – | –
41.5 | 18.6 | 47.6 | 31 | CC(C)CNc1ccc2cc(C#N)c3sccc3c2c1 | 18.6 | 98.4 | – | – | – | – | – | –
43.4 | 23.6 | 33.6 | 31.1 | CC(C)CNc1ccc2cc(C#N)c3ccccc3c2c1 | 35.5 | 52.9 | – | – | – | – | – | –
70.3 | 29.9 | 54.3 | 50.4 | N#Cc1cc2ccccc2c2ccsc12 | 55.6 | 84.6 | – | – | – | – | – | –
6.8 | 0.65 | 10.8 | 3.3 | N#Cc1ccc2cc(C#N)c3ccccc3c2c1 | 8.2 | 1.78 | – | – | – | – | – | –
64.1 | 32.2 | 62 | 61.3 | N#Cc1cc2ccc(N3CCCCC3)cc2c2ccsc12 | 25.7 | 62 | – | – | – | – | – | –
6.04 | 0.45 | 7.22 | 5.53 | N#Cc1ccc2cc(C#N)c3sccc3c2c1 | 8.19 | 5.13 | – | – | – | – | – | –
7.8 | 8.31 | 18.3 | 9.57 | N#Cc1cc2ccc(F)cc2c2ccccc12 | 13.2 | 3.43 | – | – | – | – | – | –
